What is called IC50 is the concentration needed to halve the response being measured. Low values mean greater potency, high ones weaker potency.

The target in the experiment is T1, human SSTR5 (Homo sapiens, UniProt P35346).
T1 construct: expressed in transfected cells
T1 sequence (P35346 whole entry): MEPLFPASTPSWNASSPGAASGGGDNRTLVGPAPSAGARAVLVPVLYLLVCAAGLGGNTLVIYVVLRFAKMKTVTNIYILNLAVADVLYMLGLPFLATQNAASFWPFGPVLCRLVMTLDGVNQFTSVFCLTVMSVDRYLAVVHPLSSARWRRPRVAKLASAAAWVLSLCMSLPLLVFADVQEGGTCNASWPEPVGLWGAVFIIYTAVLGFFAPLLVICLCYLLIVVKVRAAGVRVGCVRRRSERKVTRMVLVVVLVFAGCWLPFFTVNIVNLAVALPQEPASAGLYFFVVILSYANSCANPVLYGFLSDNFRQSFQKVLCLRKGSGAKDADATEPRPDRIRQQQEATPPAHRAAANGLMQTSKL
The experiment is described as follows: Inositol phosphate accumulation assay (IP1 HTRF, antagonist mode). Type of experiment: cell-based. The conditions noted are these: CHO-K1 cells co-expressing human SSTR5 with Gqi5, SST28 agonist at concentration generating 90% of full activation. The text has this:
CHO-K1 cells stably co-expressing human SSTR5 with Gqi5 were developed using Jump-In technology from Thermo-Fisher. Gqi5 is the mouse G alpha q protein, that was modified to interact with Gi-coupled GPCRs as described previously (Coward, P.; Chan, S. D.; Wada, H. G.; Humphries, G. M.; Conklin, B. R. Chimeric G proteins Allow a High-Throughput Signaling Assay of Gi-Coupled Receptors. Anal Biochem. 1999, 270(2),242-248).
Co-expression of Gqi5 with SSTR5 allowed monitoring of SSTR5 activity by following IP1 accumulation. The assay was performed in a 384-well plate format using the IP1 assay kit from Cis-Bio in an antagonist mode, i.e., pre-incubation with antagonist following by receptor activation by agonist at a concentration generating 90% of full activation. Frozen cells expressing human SSTR5 were thawed, washed, and then plated in DMEM supplemented with 10% FBS and non-essential amino acids. 40 μL of 2.5×10^5 cells/mL were plated on a Poly D-Lysine coated 384-well white plate. The cells were then incubated for 16 hr. at 37° C/5% CO2. After 16 hour the medium was removed, and 10 μL of stimulation buffer was added to the cells. Test compounds were dissolved in DMSO at concentrations 2000-fold that of the final assay concentrations. 7.5 nLcompound solutions were transferred to the cell plates using a Labcyte Echo® acoustic liquid handler. The plates were then incubated for 15 minutes at 37° C/5%CO2. After the first incubation, 5 μL of 30 nM SST28 were added to the cells, and the cells were incubated for 90 minutes at 37° C/5%CO2. 5 μL of detection buffer (prepared as described in the IP-1 kit) was added to each well, and the plates were incubated at RT for 1 hour.
TR-FRET was measured using a ClarioSTAR plate reader, calculating the ratio between emissions at 665 nm and 620 nm (HTRF ratio). The HTRF ratio for positive (Max) and negative (Min) controls were used to normalize HTRF data and generate values for % inhibition. IC50 and maximal inhibition values were determined using a standard 4-parameter fit.
In general terms: Time-resolved FRET reads energy transfer from a long-lived donor to a nearby acceptor.
Turning to `CCOc1cc(C(=O)OC)c(C2CC2)cc1CN1CCC2(CC1)CC(=O)N(c1ccc(C(=O)NCCS(=O)(=O)O)cc1)C2` [Example 29, 2-(4-(8-(5-cyclopropyl-2-ethoxy-4-(methoxycarbonyl)benzyl)-3-oxo-2,8-diazaspiro[4.5]decan-2-yl)benzamido)ethane-1-sulfonic acid], the IC50 lay in the range of 100 to 1000 nM.

Take `CCOc1cc(C(=O)OC)c(C2CC2)cc1CN1CCN(C(=O)Oc2cccc(C(=O)NC[C@H](O)[C@@H](O)[C@H](O)[C@H](O)CO)c2)CC1` [Example 98]: the concentration for half-maximal inhibition (IC50) lay within 100 to 1000 nM.

In the case of `CCOc1cc(C(=O)OC)c(C2CC2)cc1CN1CCC2(CC1)CC(=O)N(c1ccc(C(=O)NC(CO)CO)cc1)C2` [Example 19, methyl 2-cyclopropyl-4-((2-(4-((1,3-dihydroxypropan-2-yl)carbamoyl)phenyl)-3-oxo-2.8-diazaspiro[4.5]decan-8-yl)methyl)-5-ethoxybenzoate], the IC50 fell in the range of 100 to 1000 nM.

`CCOc1cc(C(=O)OC)c(C2CC2)cc1CN1CCC2(CC1)CC(=O)N(c1ccc(C(=O)N(C)CCCC(=O)O)cc1)C2` [Example 41, 4-(4-(8-(5-cyclopropyl-2-ethoxy-4-(methoxycarbonyl)benzyl)-3-oxo-2,8-diazaspiro[4.5]decan-2-yl)-N-methylbenzamido)butanoic acid] gave an IC50 greater than 5000 nM.

The molecule `CCOc1cc(CN2CCC3(CC2)CN(c2ccc(C(=O)N4CC(C(=O)NCCC[N+](C)(C)C)C4)cc2)C(=O)O3)cc(OCC)c1-c1ccc(F)cc1` [Example 8, 3-(1-(4-(8-((2,6-diethoxy-4′-fluoro-[1,1′-biphenyl]-4-yl)methyl)-2-oxo-1-oxa-3,8-diazaspiro[4.5]decan-3-yl)benzoyl)azetidine-3-carboxamido)-N,N,N-trimethylpropan-1-aminium] yielded an IC50 of 1000 to 5000 nM.

`CCOc1cc(C(=O)OC)c(C2CC2)cc1CN1CCC2(CC1)CC(=O)N(c1ccc(C(=O)NCCCP(=O)(O)O)cc1)C2` [Example 32, (3-(4-(8-(5-cyclopropyl-2-ethoxy-4-(methoxycarbonyl)benzyl)-3-oxo-2,8-diazaspiro[4.5]decan-2-yl)benzamido)propyl)phosphonic acid] registered an IC50 greater than 5000 nM.

The molecule `CCOc1cc(-c2ccc(F)cc2)c(C2CC2)cc1CN1CCC2(CC1)CN(c1ccc(S(=O)(=O)NCCOCCO)cc1)C(=O)N2` [compound 85, 4-(8-((2-cyclopropyl-5-ethoxy-4′-fluoro-[1,1′-biphenyl]-4-yl)methyl)-2-oxo-1,3,8-triazaspiro[4.5]decan-3-yl)-N-(2-(2-hydroxyethoxy)ethyl)benzenesulfonamide] registered a 50% inhibitory concentration (IC50) of no more than 100 nM.

`CCOc1cc(-c2ccc(F)cc2)c(C2CC2)cc1CN1CCC2(CC1)CN(c1ccc(C(=O)NCCCNC(N)=O)cc1)C(=O)O2` [Example 62, 4-(8-((2-cyclopropyl-5-ethoxy-4′-fluoro-[1,1′-biphenyl]-4-yl)methyl)-2-oxo-1-oxa-3,8-diazaspiro[4.5]decan-3-yl)-N-(3-ureidopropyl)benzamide]: the IC50 is no more than 100 nM.

For the molecule `CCOc1cc(C(=O)OC)c(C2CC2)cc1CN1CCN(C(=O)Nc2ccc(C(=O)NC[C@H](O)[C@@H](O)[C@H](O)[C@H](O)CO)cc2)CC1` [compound 93, methyl 2-cyclopropyl-5-ethoxy-4-[[4-[[4-[[(2S,3R,4R,5R)-2,3,4,5,6-pentahydroxyhexyl]carbamoyl]phenyl]carbamoyl]piperazin-1-yl]methyl]benzoate], the IC50 is 1000 to 5000 nM.

Regarding `CCOc1cc(C(=O)OC)c(C2CC2)cc1CN1CCC2(CC1)CN(c1ccc(C(=O)NCCCNC(N)=O)cc1)C(=O)N2` [Example 77, methyl 2-cyclopropyl-5-ethoxy-4-((2-oxo-3-(4-((3-ureidopropyl)carbamoyl)phenyl)-1,3,8-triazaspiro[4.5]decan-8-yl)methyl)benzoate], the concentration for half-maximal inhibition (IC50) was greater than 5000 nM.

Source of the values: patent publication US20230113609A1, “SSTR5 ANTAGONISTS” (Kallyope, Inc., priority 2019, published 2023).
